Source: patent US12264134B2 (Merck Sharp & Dohme LLC, priority 2018, dated 2025)

Molecular target: IDO1 (Homo sapiens, UniProt P14902)
Experiment: IDO1 Cellular Assay in HeLa Cells Stimulated with IFNγ
Assay type: cell-based
Conditions: read-out: HeLa Cell Potency, IC50

Chain of IDO1 (P14902 whole entry): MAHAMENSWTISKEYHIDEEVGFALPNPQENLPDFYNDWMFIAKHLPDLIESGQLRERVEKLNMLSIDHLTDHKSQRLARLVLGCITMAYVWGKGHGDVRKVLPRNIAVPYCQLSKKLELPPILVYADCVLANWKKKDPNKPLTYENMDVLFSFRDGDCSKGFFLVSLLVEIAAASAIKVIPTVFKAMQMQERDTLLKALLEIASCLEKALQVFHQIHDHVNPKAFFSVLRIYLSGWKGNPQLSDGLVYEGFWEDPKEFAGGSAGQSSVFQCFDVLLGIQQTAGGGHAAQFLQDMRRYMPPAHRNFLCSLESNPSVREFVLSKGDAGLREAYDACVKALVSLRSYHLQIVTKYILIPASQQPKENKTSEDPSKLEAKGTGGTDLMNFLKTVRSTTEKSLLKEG

Row | SMILES | IC50 [nM]
1 | Cc1cccc(N2CCN(C(=O)Cn3nc(C(=O)N4CCC5NC(=O)OCC5C4)c4c3C[C@H]3C[C@@H]43)CC2)c1C (stereo partly drawn) [Example 239, 6-[(3bR,4aR)-1-{2-[4-(2,3-dimethylphenyl)piperazin-1-yl]-2-oxoethyl}-3b,4,4a,5-tetahydro-1H-cyclopropa[3,4]cyclopenta[1,2-c]pyrazole-3-carbonyl]octahydro-2H-pyrido[4,3-d][1,3]oxazin-2-one] | 6.53
2 | Cc1cccc(N2CCN(C(=O)Cn3nc(C(=O)N4CCC5NC(=O)OCC5C4)c4c3C[C@H]3C[C@@H]43)CC2)c1C (stereo partly drawn) [Example 240, 6-[(3bR,4aR)-1-{2-[4-(2,3-dimethylphenyl)piperazin-1-yl]-2-oxoethyl}-3b,4,4a,5-tetrahydro-1H-cyclopropa[3,4]cyclopenta[1,2-c]pyrazole-3-carbonyl]octahydro-2H-pyrido[4,3-d][1,3]oxazin-2-one] | 13.3
3 | CN[C@H]1CCCN(C(=O)c2nn(CC(=O)N3CCN(c4cccc(C)c4C)CC3)c3c2[C@@H]2C[C@@H]2C3)C1 [Example 241, 1-[4-(2,3-dimethylphenyl)piperazin-1-yl]-2-{(3bR,4aR)-3-[(3S)-3-(methylamino)piperidine-1-carbonyl]-3b,4,4a,5-tetrahydro-1H-cyclopropa[3,4]cyclopenta[1,2-c]pyrazol-1-yl}ethan-1-one] | 164
4 | Cc1cccc(N2CCN(C(=O)Cn3nc(C(=O)N4CCC(NC(=O)NN)CC4)c4c3C[C@H]3C[C@@H]43)CC2)c1C [Example 242, N-{1-[(3bR,4aR)-1-{2-[4-(2,3-dimethylphenyl)piperazin-1-yl]-2-oxoethyl}-3b,4,4a,5-tetrahydro-1H-cyclopropa[3,4]cyclopenta[1,2-c]pyrazole-3-carbonyl]piperidin-4-yl}hydrazinecarboxamide] | 101
5 | Cc1cccc(N2CCN(C(=O)Cn3nc(C(=O)N4CC5(CCN(C)C5)C4)c4c3C[C@H]3C[C@@H]43)CC2)c1C [Example 243, 1-[4-(2,3-dimethylphenyl)piperazin-1-yl]-2-[(3bR,4aR)-3-(6-methyl-2,6-diazaspiro[3.4]octane-2-carbonyl)-3b,4,4a,5-tetrahydro-1H-cyclopropa[3,4]cyclopenta[1,2-c]pyrazol-1-yl]ethan-1-one] | 160
6 | Cc1cccc(N2CCN(C(=O)Cn3nc(C(=O)N4CCC5(CC4)CNC(=O)CO5)c4c3C[C@H]3C[C@@H]43)CC2)c1C [Example 244, 9-[(3bR,4aR)-1-{2-[4-(2,3-dimethylphenyl)piperazin-1-yl]-2-oxoethyl}-3b,4,4a,5-tetrahydro-1H-cyclopropa[3,4]cyclopenta[1,2-c]pyrazole-3-carbonyl]-1-oxa-4,9-diazaspiro[5.5]undecan-3-one] | 4.77
7 | Cc1cccc(N2CCN(C(=O)Cn3nc(C(=O)N4CCC(C)(O)CC4C)c4c3C[C@H]3C[C@@H]43)CC2)c1C (stereo partly drawn) [Example 245, 1-[4-(2,3-dimethylphenyl)piperazin-1-yl]-2-[(3bR,4aR)-3-(4-hydroxy-2,4-dimethylpiperidine-1-carbonyl)-3b,4,4a,5-tetrahydro-1H-cyclopropa[3,4]cyclopenta[1,2-c]pyrazol-1-yl]ethan-1-one] | 3.01
8 | Cc1cccc(N2CCN(C(=O)Cn3nc(C(=O)N4CCN5CCCC[C@@H]5C4)c4c3C[C@H]3C[C@@H]43)CC2)c1C [Example 246, 1-[4-(2,3-dimethylphenyl)piperazin-1-yl]-2-{(3bR,4aR)-3-[(9aR)-octahydro-2H-pyrido[1,2-a]pyrazine-2-carbonyl]-3b,4,4a,5-tetrahydro-1H-cyclopropa[3,4]cyclopenta[1,2-c]pyrazol-1-yl}ethan-1-one] | 3.27
9 | Cc1cccc(N2CCN(C(=O)Cn3nc(C(=O)N4CCC(C)(CO)CC4)c4c3C[C@H]3C[C@@H]43)CC2)c1C [Example 248, 1-[4-(2,3-dimethylphenyl)piperazin-1-yl]-2-{(3aR,4aR)-3-[4-(hydroxymethyl)-4-methylpiperidine-1-carbonyl]-3b,4,4a,5-tetrahydro-1H-cyclopropa[3,4]cyclopenta[1,2-c]pyrazol-1-yl}ethan-1-one] | 0.7
